In patent US20040224880A1, “Regulation of gastric acid secretion by inwardly rectifying k+ channels” (Beth Israel Deaconess Medical Center, Inc., priority 2001, published 2004):
“Also recorded” adds a separate entry of the source. Read-outs that look alike come from different tables or passages of the source.

Assays:
bullfrog gastric mucosa [1] = assay: Acid secretion of frog (bullfrog) gastric mucosa stimulated with histamine/carbachol or forskolin; format: cell-based; details: for Rate of decline in acid secretion: from the linear portion of the inhibition curve, 1 mM cimetidine, 10 mM NH4Cl, 2 mM KCN; for acid secretion with 10 mM imidazole, 3 hr: 10 mM nutrient imidazole (5 mM Iz), pH 7.1, 3 hr; for effect of 0.5 and 1 mM barium on acid secretion (in words): up to 3 hr
bullfrog gastric mucosa [2] = tested on: bullfrog gastric mucosa
bullfrog gastric mucosa [3] = format: cell-based
Description: FIG. 1B Electrophysiology in the bullfrog gastric mucosa. […] Removal of NH4Cl was followed by a complete recovery of R within 30 min. Data were obtained from 21 experiments and are expressed as the mean±SEM.
FIG. 1C Electrophysiology in the bullfrog gastric mucosa. […] Removal of NH4Cl was followed by a complete recovery of PD within 30 min. Data were obtained from 21 experiments and are expressed as the mean±SEM.

[4] = blocker first (0.5-5 mM barium, 1-10 mM TEA, 10-100 μM tolbutamide, 10 μM clotrimazole, imidazole, 100 μM bumetamide, amiloride, 1 mM oubain, 0.3 mM DIDS), then 10 mM NH4Cl, within 30 min
[5] = blocker first, then 10 mM NH4Cl, within 30 min
[6] = nutrient solution, vs control tissues, imidazole 100 μM Iz (200 μM nutrient), TEA 1-10 mM, tolbutamide 10-100 μM, clotrimazole 10 μM, bumetamide 100 μM, amiloride, oubain 1 mM, DIDS 0.3 mM, KCN, KCl 2 mM, methylamine
[7] = 10 mM NH4Cl within 30 min, 0.5, 1, 5 mM barium, TEA, tolbutamide, clotrimazole, vs control tissues
[8] = 10 mM NH4Cl within 30 min, barium, TEA, tolbutamide, clotrimazole, vs control tissues
[9] = blocker first (0.5 and 1 mM barium, TEA, tolbutamide, clotrimazole), then 10 mM NH4Cl, within 30 min
[10] = Time 90″: after 90 min stimulation with histamine/carbachol, start of incubation with 1 mM cimetidine, 0.3 mM omeprazole, 10 mM NH4Cl or 2 mM KCN
[11] = Time 120″, 1 mM cimetidine or 0.3 mM omeprazole added at 90 min
[12] = Time 150″, 1 mM cimetidine or 0.3 mM omeprazole added at 90 min

N=C(N)NC(=O)c1nc(Cl)c(N)nc1N [amiloride]
acid secretion after 10 mM NH4Cl added to tissues treated with the blocker (bullfrog gastric mucosa [1]; [4]): 0.188±0.140 μEq/hr cm^2
effect of 10 mM NH4Cl on acid secretion of tissues treated with the blocker (in words) (bullfrog gastric mucosa [1]; [5]): declined
effect on stimulated acid secretion (in words) (bullfrog gastric mucosa [1]; [6]): unchanged; also recorded: little effect on stimulated acid secretion; also recorded: no significant reduction in acid secretion

CN [methylamine]
flux rate of methylamine in inhibited tissues (bullfrog gastric mucosa [2]): 0.601±0.114 μM/h cm^2
flux rate of methylamine in stimulated tissues (bullfrog gastric mucosa [2]): 2.25±0.088 μM/h cm^2
acid secretion after methylamine washed from the nutrient solution (bullfrog gastric mucosa [1]): 3.74±0.41 μEq/hr cm^2
acid secretion after washout, % of the starting level (bullfrog gastric mucosa [1]): 60%
acid secretion with methylamine (bullfrog gastric mucosa [1]): 0.081±0.056 μEq/hr cm^2
effect on stimulated acid secretion (in words) (bullfrog gastric mucosa [1]): rapidly inhibits acid secretion
least (minimum) concentration required for complete inhibition of acid secretion within 30 min (bullfrog gastric mucosa [1]): 50 mM

Clc1ccccc1C(c1ccccc1)(c1ccccc1)n1ccnc1 [clotrimazole]
effect on resistance (R) of stimulated tissues (in words) (bullfrog gastric mucosa [3]; [7]): no effect; also recorded: not significantly different from that of control tissues
effect on potential difference (PD) of stimulated tissues (in words) (bullfrog gastric mucosa [3]; [8]): no effect
R after 10 mM NH4Cl added to tissues treated with the blocker (in words) (bullfrog gastric mucosa [3]; [9]): increase in R
PD after 10 mM NH4Cl added to tissues treated with the blocker (in words) (bullfrog gastric mucosa [3]; [5]): increase in PD
acid secretion after 10 mM NH4Cl added to tissues treated with the blocker (bullfrog gastric mucosa [1]; [4]): 0 μEq/hr cm^2
effect of 10 mM NH4Cl on acid secretion of tissues treated with the blocker (in words) (bullfrog gastric mucosa [1]; [5]): abolished
effect on stimulated acid secretion (in words) (bullfrog gastric mucosa [1]; [6]): no effect on stimulated acid secretion; also recorded: no significant decline

CCCCNc1cc(C(=O)O)cc(S(N)(=O)=O)c1Oc1ccccc1 [bumetamide]
acid secretion after 10 mM NH4Cl added to tissues treated with the blocker (bullfrog gastric mucosa [1]; [4]): 0.645±0.278 μEq/hr cm^2
effect of 10 mM NH4Cl on acid secretion of tissues treated with the blocker (in words) (bullfrog gastric mucosa [1]; [5]): declined
effect on stimulated acid secretion (in words) (bullfrog gastric mucosa [1]; [6]): unchanged; also recorded: little effect on stimulated acid secretion; also recorded: no significant reduction in acid secretion

O=S(=O)(O)c1cc(N=C=S)ccc1C=Cc1ccc(N=C=S)cc1S(=O)(=O)O [DIDS]
acid secretion with DIDS (bullfrog gastric mucosa [1]; 0.3 mM DIDS, 60 min, from 5.25±0.12): 2.29±0.18 μEq/hr cm^2
acid secretion after 10 mM NH4Cl added to tissues treated with the blocker (bullfrog gastric mucosa [1]; [4]): 0 μEq/hr cm^2
effect of 10 mM NH4Cl on acid secretion of tissues treated with the blocker (in words) (bullfrog gastric mucosa [1]; [5]): declined; also recorded: immediately reduced acid secretion to zero
effect on stimulated acid secretion (in words) (bullfrog gastric mucosa [1]; [6]): approximately one half of the initial rate; also recorded: partially, but not completely, inhibited

CN/C(=N/CCSCc1nc[nH]c1C)NC#N [Cimetidine, cimetidine]
Acid secretion (bullfrog gastric mucosa [1]; [10]): 5.59 ± 0.13 μEq/h · cm^2
Acid secretion (bullfrog gastric mucosa [1]; [11]): 3.51 ± 0.21 μEq/h · cm^2
Acid secretion (bullfrog gastric mucosa [1]; [12]): 0.83 ± 0.22 μEq/h · cm^2
Rate of decline in acid secretion (bullfrog gastric mucosa [1]; 0.3 mM omeprazole): −0.07935 (μEq/h · cm^2)/min

N [ammonia (NH3), ammonia]
NH3 lost from the nutrient solution (bullfrog gastric mucosa [2]; 10 mM): 61.46 µM
luminal NH3 concentration after 30 min (bullfrog gastric mucosa [2]; 30 min, 10 mM): 0.00133 ± 0.00133 µM
nutrient NH3 concentration at 30 min (bullfrog gastric mucosa [2]; 30 min, 10 mM): 538.3±6.7
concentration of ammonia (NH3) that completely inhibits acid secretion within 30 min (bullfrog gastric mucosa [1]; NH3 present in 10 mM NH4Cl at pH 7.2, basolateral exposure): 92.5 µM

COc1ccc2[nH]c([S+]([O-])Cc3ncc(C)c(OC)c3C)nc2c1 (stereo not drawn) [Omeprazole, omeprazole]
Acid secretion (bullfrog gastric mucosa [1]; [10]): 5.45 ± 0.30 μEq/h · cm^2
Acid secretion (bullfrog gastric mucosa [1]; [11]): 2.03 ± 0.21 μEq/h · cm^2
Acid secretion (bullfrog gastric mucosa [1]; [12]): 0.30 ± 0.10 μEq/h · cm^2
Rate of decline in acid secretion (bullfrog gastric mucosa [1]; 0.3 mM omeprazole): −0.09034 (μEq/h · cm^2)/min

c1c[nH]cn1 [imidazole]
acid secretion with 100 μM imidazole (bullfrog gastric mucosa [1]; 100 μM Iz, 3 hr (180 min), from 5.47±0.26): 4.86±0.29 μEq/hr cm^2
acid secretion with 10 mM imidazole, 30 min (bullfrog gastric mucosa [1]; 10 mM imidazole (5 mM Iz, 5 mM Iz+), 30 min, from 6.60±0.43): 4.60±0.43 μEq/hr cm^2
acid secretion with 10 mM imidazole, 3 hr (bullfrog gastric mucosa [1]; from 6.60±0.43): 4.06±0.46 μEq/hr cm^2
acid secretion with 10 mM imidazole, 3 hr (bullfrog gastric mucosa [1]; from 6.60±0.43, listed as Iz): 4.03 μEq/hr cm^2
acid secretion after 10 mM NH4Cl added to tissues treated with the blocker (bullfrog gastric mucosa [1]; [4]): 0±0 μEq/hr cm^2
effect of 10 mM NH4Cl on acid secretion of tissues treated with the blocker (in words) (bullfrog gastric mucosa [1]; [5]): inhibited completely; also recorded: inhibited acid secretion immediately
effect on stimulated acid secretion (in words) (bullfrog gastric mucosa [1]; [6]): no effect on acid secretion; also recorded: not significantly different from that of control tissues
effect on stimulated acid secretion (in words) (bullfrog gastric mucosa [1]; nutrient solution, vs control tissues, imidazole 100 μM Iz (200 μM nutrient), TEA 1-10 mM, tolbutamide 10-100 μM, clotrimazole 10 μM, bumetamide 100 μM, amiloride, oubain 1 mM, DIDS 0.3 mM, KCN, KCl 2 mM, methylamine, listed as Iz): not significantly different from that of control tissues

[Ba] [barium]
effect on resistance (R) of stimulated tissues (in words) (bullfrog gastric mucosa [3]; [7]): increased significantly; also recorded: significant increase in R
effect on potential difference (PD) of stimulated tissues (in words) (bullfrog gastric mucosa [3]; [8]): unaffected; also recorded: little to no influence on PD; also recorded: not significantly different from that of control tissues
R after 10 mM NH4Cl added to tissues treated with the blocker (in words) (bullfrog gastric mucosa [3]; [9]): R increased similar to that of control tissues; also recorded: increase in R
PD after 10 mM NH4Cl added to tissues treated with the blocker (in words) (bullfrog gastric mucosa [3]; [5]): PD increased in all groups; also recorded: increase in PD
acid secretion with 0.5 mM barium (bullfrog gastric mucosa [1]; 0.5 mM barium, 3 hr (180 min), from 5.23±0.29): 4.12±0.38 μEq/hr cm^2
acid secretion with 1 mM barium (bullfrog gastric mucosa [1]; 1 mM barium, 3 hr (180 min), from 5.35±0.22): 4.20±0.21 μEq/hr cm^2
acid secretion with 5 mM barium (bullfrog gastric mucosa [1]; 5 mM barium, 3 hr (180 min), from 5.19±0.22): 2.89±0.33 μEq/hr cm^2
reduction of acid secretion compared to control tissues (bullfrog gastric mucosa [1]; 5 mM barium, by 3 hr): 44%
effect of 5 mM barium on acid secretion (in words) (bullfrog gastric mucosa [1]; 5 mM barium, vs control tissues): significantly (P=0.0085) different from control tissues; also recorded: significantly different from that of control tissues
effect of 0.5 and 1 mM barium on acid secretion (in words) (bullfrog gastric mucosa [1]; vs control tissues): not different from that of control tissues; also recorded: inhibition of acid secretion does not occur
effect of 0.5 and 1 mM barium on acid secretion (in words) (bullfrog gastric mucosa [1]; vs control tissues, listed as Barium): not significantly different from that of control tissues
acid secretion after 10 mM NH4Cl added to tissues treated with the blocker (bullfrog gastric mucosa [1]; [4]): 0 μEq/hr cm^2
effect of 10 mM NH4Cl on acid secretion of tissues treated with the blocker (in words) (bullfrog gastric mucosa [1]; [5]): abolished

C[C@@H]1O[C@@H](O[C@H]2C[C@@H](O)[C@]3(CO)[C@H]4[C@H](O)C[C@]5(C)[C@@H](C6=CC(=O)OC6)CC[C@]5(O)[C@@H]4CC[C@]3(O)C2)[C@H](O)[C@H](O)[C@H]1O [oubain]
effect on stimulated acid secretion (in words) (bullfrog gastric mucosa [1]): unchanged; also recorded: little effect on stimulated acid secretion; also recorded: no significant reduction in acid secretion
acid secretion after 10 mM NH4Cl added to tissues treated with the blocker (bullfrog gastric mucosa [1]; [4]): 0 μEq/hr cm^2
effect of 10 mM NH4Cl on acid secretion of tissues treated with the blocker (in words) (bullfrog gastric mucosa [1]; [5]): declined

CCCCNC(=O)NS(=O)(=O)c1ccc(C)cc1 [tolbutamide]
effect on resistance (R) of stimulated tissues (in words) (bullfrog gastric mucosa [3]; [7]): no effect; also recorded: not significantly different from that of control tissues
effect on potential difference (PD) of stimulated tissues (in words) (bullfrog gastric mucosa [3]; [8]): no effect
R after 10 mM NH4Cl added to tissues treated with the blocker (in words) (bullfrog gastric mucosa [3]; [9]): increase in R
PD after 10 mM NH4Cl added to tissues treated with the blocker (in words) (bullfrog gastric mucosa [3]; [5]): increase in PD
acid secretion after 10 mM NH4Cl added to tissues treated with the blocker (bullfrog gastric mucosa [1]; [4]): 0 μEq/hr cm^2
effect of 10 mM NH4Cl on acid secretion of tissues treated with the blocker (in words) (bullfrog gastric mucosa [1]; [5]): abolished
effect on stimulated acid secretion (in words) (bullfrog gastric mucosa [1]; [6]): no effect on stimulated acid secretion; also recorded: no significant decline

CC[N+](CC)(CC)CC [TEA, tetraethylammonium]
PD after 10 mM NH4Cl added to tissues treated with the blocker (in words) (bullfrog gastric mucosa [3]): increase in PD
R after 10 mM NH4Cl added to tissues treated with the blocker (in words) (bullfrog gastric mucosa [3]): R increased in all tissues; also recorded: increase in R
effect on potential difference (PD) of stimulated tissues (in words) (bullfrog gastric mucosa [3]): no effect
effect on resistance (R) of stimulated tissues (in words) (bullfrog gastric mucosa [3]): no effect on R; also recorded: not significantly different from that of control tissues
acid secretion after 10 mM NH4Cl added to tissues treated with the blocker (bullfrog gastric mucosa [1]): 0 μEq/hr cm^2
effect of 10 mM NH4Cl on acid secretion of tissues treated with the blocker (in words) (bullfrog gastric mucosa [1]): abolished
effect on stimulated acid secretion (in words) (bullfrog gastric mucosa [1]): no effect on stimulated acid secretion; also recorded: no significant decline

[Cl-].[K+] [KCl, Potassium chloride]
effect on stimulated acid secretion (in words) (bullfrog gastric mucosa [1]): little effect on acid secretion
